In patent US7425631B2 (Amgen Inc., priority 2003, dated 2008):

Target: T1, human B1 receptor (Homo sapiens, UniProt P46663)
T1 construct: expressed in transfected cells
T1 sequence (P46663 1-353): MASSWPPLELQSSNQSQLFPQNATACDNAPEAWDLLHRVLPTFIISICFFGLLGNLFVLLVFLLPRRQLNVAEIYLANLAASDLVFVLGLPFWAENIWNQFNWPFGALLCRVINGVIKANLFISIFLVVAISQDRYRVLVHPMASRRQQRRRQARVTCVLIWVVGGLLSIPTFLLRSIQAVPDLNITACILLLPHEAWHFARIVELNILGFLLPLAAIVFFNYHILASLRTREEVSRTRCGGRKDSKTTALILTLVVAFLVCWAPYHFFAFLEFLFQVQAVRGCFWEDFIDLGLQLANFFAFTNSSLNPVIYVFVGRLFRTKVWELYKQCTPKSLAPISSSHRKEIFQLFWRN
Assay: In vitro assay of human B1 receptor function using calcium flux (aequorin luminescence)
Assay type: cell-based
Settings: CHO D-/hB1/Aequorin cells, agonist 20 nM des-Arg10-Kallidin (EC80); read-out: binding IC50's to hB1 receptor function
Protocol: Activation of the Gq linked B1 receptor results in an increase in intracellular calcium. […] Aequorin is a 21-kDa photoprotein that forms a bioluminescent complex when linked to the chromophore cofactor coelenterazine.
Following coelenterazine incubation, an automated flash-luminometer platform was used to dispense the B1 antagonist compounds (dissolved in DMSO and diluted with buffer to the desired concentration (final DMSO concentration <1% DMSO)) to the cell plate, a CCD camera situated underneath the cell plate took 12 images of the cell plate at 5 second intervals to determine if there was any agonist activity with the compounds. The hB1 agonist, des-Arg10-Kallidin, was added to the cell plate and another 12 images were recorded to determine the IC50 of the antagonist(s).

IC50 [nM] | Structure (SMILES)
< 10 | O=C(C[C@@H](NS(=O)(=O)c1cccc(C(F)(F)F)c1)c1ccccc1)N[C@@H]1CCCc2cc(CN3CC=CCC3)ccc21 [am, (3R)-N-((1R)-6-(3,6-dihydro-1(2H)-pyridinylmethyl)-1,2,3,4-tetrahydro-1-naphthalenyl)-3-phenyl-3-(((3-(trifluoromethyl)phenyl)sulfonyl)amino)propanamide]
< 10 | COc1ccc([C@@H](CC(=O)N[C@@H]2CCCc3cc(CN4CCCCC4)ccc32)NS(=O)(=O)c2cc3cc(Cl)ccc3s2)cn1 [aw, (3R)-3-(((5-chloro-1-benzothien-2-yl)sulfonyl)amino)-3-(6-(methyloxy)-3-pyridinyl)-N-((1R)-6-(1-piperidinylmethyl)-1,2,3,4-tetrahydro-1-naphthalenyl)propanamide]
< 10 | COc1ccc([C@@H](CC(=O)N[C@@H]2CCCc3cc(CN4CCCCC4)ccc32)NS(=O)(=O)c2cccc(C(F)(F)F)c2)cn1 [ay, (3R)-3-(6-(methyloxy)-3-pyridinyl)-N-((1R)-6-(1-piperidinylmethyl)-1,2,3,4-tetrahydro-1-naphthalenyl)-3-(((3-(trifluoromethyl)phenyl)sulfonyl)amino)propanamide]
< 10 | CC(C)CNCc1ccc2c(c1)CCC[C@H]2NC(=O)C[C@@H](NS(=O)(=O)c1ccc(Cl)c(Cl)c1)c1ccccc1 [bg, (3R)-3-(((3,4-dichlorophenyl)sulfonyl)amino)-N-((1R)-6-(((2-methylpropyl)amino)methyl)-1,2,3,4-tetrahydro-1-naphthalenyl)-3-phenylpropanamide]
< 10 | CC(C)(C)NCc1ccc2c(c1)CCC[C@H]2NC(=O)C[C@@H](NS(=O)(=O)c1ccc(Cl)c(Cl)c1)c1ccccc1 [bm, (3R)-3-(((3,4-dichlorophenyl)sulfonyl)amino)-N-((1R)-6-(((1,1-dimethylethyl)amino)methyl)-1,2,3,4-tetrahydro-1-naphthalenyl)-3-phenylpropanamide]
< 10 | O=C(CC(NS(=O)(=O)c1ccc(Cl)c(Cl)c1)c1ccc(F)cc1)NC1CCOc2cc(CN3CCCCC3)ccc21 (stereo not shown) [by, 3-(3,4-Dichloro-benzenesulfonylamino)-3-(4-fluoro-phenyl)-N-(7-piperidin-1-ylmethyl-chroman-4-yl)-propionamide]
< 10 | O=C(C[C@@H](NS(=O)(=O)c1ccc(Cl)c(Cl)c1)c1ccc(F)cc1)N[C@@H]1CCCc2cc(CN3CCCCC3)ccc21 [bz, 3-(3,4-Dichloro-benzenesulfonylamino)-3-(4-fluoro-phenyl)-N-(6-piperidin-1-ylmethyl-1,2,3,4-tetrahydro-naphthalen-1-yl)-propionamide]
< 10 | COCCNCc1ccc2c(c1)OCC[C@H]2NC(=O)C[C@@H](NS(=O)(=O)c1ccc(Cl)c(Cl)c1)c1ccc(F)cc1 [ce, 3-(3,4-Dichloro-benzenesulfonylamino)-3-(4-fluoro-phenyl)-N-{7-[(2-methoxy-ethylamino)-methyl]-chroman-4-yl}-propionamide]
< 10 | CC(C)(C)NCc1ccc2c(c1)CCC[C@H]2NC(=O)C[C@@H](NS(=O)(=O)c1ccc(Cl)c(Cl)c1)c1ccc(F)cc1 [cj, N-[6-(tert-Butylamino-methyl)-1,2,3,4-tetrahydro-naphthalen-1-yl]-3-(3,4-dichloro-benzenesulfonylamino)-3-(4-fluoro-phenyl)-propionamide]
< 10 | CC(C)CNCc1ccc2c(c1)OCC[C@H]2NC(=O)C[C@@H](NS(=O)(=O)c1cccc(C(F)(F)F)c1)c1ccc(F)cc1 [cl, 3-(4-Fluoro-phenyl)-N-[7-(isobutylamino-methyl)-chroman-4-yl]-3-(3-trifluoromethyl-benzenesulfonylamino)-propionamide]
< 10 | CC(C)(C)NCc1ccc2c(c1)OCC[C@H]2NC(=O)C[C@@H](NS(=O)(=O)c1cccc(C(F)(F)F)c1)c1ccc(F)cc1 [co, N-[7-(tert-Butylamino-methyl)-chroman-4-yl]-3-(4-fluoro-phenyl)-3-(3-trifluoromethyl-benzenesulfonylamino)-propionamide]
< 10 | O=C(C[C@@H](NS(=O)(=O)c1cccc(C(F)(F)F)c1)c1ccc(F)cc1)N[C@@H]1CCOc2cc(CN3CCCC3)ccc21 [ct, 3-(4-Fluoro-phenyl)-N-(7-pyrrolidin-1-ylmethyl-chroman-4-yl)-3-(3-trifluoromethyl-benzenesulfonylamino)-propionamide]
< 10 | CC(C)(C)NCc1ccc2c(c1)CCC[C@H]2NC(=O)C[C@@H](NS(=O)(=O)c1cccc(C(F)(F)F)c1)c1cccc([N+](=O)[O-])c1 [cx, N-[6-(tert-Butylamino-methyl)-1,2,3,4-tetrahydro-naphthalen-1-yl]-3-(3-nitro-phenyl)-3-(3-trifluoromethyl-benzenesulfonylamino)-propionamide]
< 10 | CC(C)(C)NCc1ccc2c(c1)CCC[C@H]2NC(=O)C[C@@H](NS(=O)(=O)c1cccc(C(F)(F)F)c1)c1cccc(C#N)c1 [cy, N-[6-(tert-Butylamino-methyl)-1,2,3,4-tetrahydro-naphthalen-1-yl]-3-(3-cyano-phenyl)-3-(3-trifluoromethyl-benzenesulfonylamino)-propionamide]
< 10 | CC(C)(C)c1ccc(S(=O)(=O)N[C@H](CC(=O)N[C@@H]2CCCc3cc(CNC4CCC4)ccc32)c2ccc(F)cc2)cc1 [de, 3-(4-tert-Butyl-benzenesulfonylamino)-N-(6-cyclobutylaminomethyl-1,2,3,4-tetrahydro-naphthalen-1-yl)-3-(4-fluoro-phenyl)-propionamide]
< 10 | CC(C)(C)c1ccc(S(=O)(=O)N[C@H](CC(=O)N[C@@H]2CCCc3cc(CN4CCCCC4)ccc32)c2ccc(F)cc2)cc1 [dh, 3-(4-tert-Butyl-benzenesulfonylamino)-3-(4-fluoro-phenyl)-N-(6-piperidin-1-ylmethyl-1,2,3,4-tetrahydro-naphthalen-1-yl)-propionamide]
< 10 | CC(C)CNCc1ccc2c(c1)CCC[C@H]2NC(=O)C[C@@H](NS(=O)(=O)c1ccc(C(C)(C)C)cc1)c1ccc(F)cc1 [dj, 3-(4-tert-Butyl-benzenesulfonylamino)-3-(4-fluoro-phenyl)-N-[6-(isobutylamino-methyl)-1,2,3,4-tetrahydro-naphthalen-1-yl]-propionamide]
< 10 | CC(C)(C)NCc1ccc2c(c1)CCC[C@H]2NC(=O)C[C@@H](NS(=O)(=O)c1ccc(C(C)(C)C)cc1)c1ccc(F)cc1 [do, N-[6-(tert-Butylamino-methyl)-1,2,3,4-tetrahydro-naphthalen-1-yl]-3-(4-tert-butyl-benzenesulfonylamino)-3-(4-fluoro-phenyl)-propionamide]
< 10 | O=C(C[C@@H](NS(=O)(=O)c1cccc(C(F)(F)F)c1)c1cccc(F)c1)N[C@@H]1CCCc2cc(CN3CCCCC3)ccc21 [dq, 3-(3-Fluoro-phenyl)-N-(6-piperidin-1-ylmethyl-1,2,3,4-tetrahydro-naphthalen-1-yl)-3-(3-trifluoromethyl-benzenesulfonylamino)-propionamide]
< 10 | O=C(C[C@@H](NS(=O)(=O)c1ccc(Cl)c(Cl)c1)c1cccc(F)c1)N[C@@H]1CCCc2cc(CNC3CCCC3)ccc21 [dx, N-(6-Cyclopentylaminomethyl-1,2,3,4-tetrahydro-naphthalen-1-yl)-3-(3,4-dichloro-benzenesulfonylamino)-3-(3-fluoro-phenyl)-propionamide]
< 10 | O=C(C[C@@H](NS(=O)(=O)c1cccc(C(F)(F)F)c1)c1ccc(F)cc1)N[C@@H]1CCCc2cc(CN3CCC(F)CC3)ccc21 [eb, 3-(4-Fluoro-phenyl)-N-[6-(4-fluoro-piperidin-1-ylmethyl)-1,2,3,4-tetrahydro-naphthalen-1-yl]-3-(3-trifluoromethyl-benzenesulfonylamino)-propionamide]
< 10 | O=C(C[C@@H](NS(=O)(=O)c1ccc(Cl)c(Cl)c1)c1cccc(Cl)c1)N[C@@H]1CCCc2cc(CN3CCCCC3)ccc21 [ed, 3-(3-Chloro-phenyl)-3-(3,4-dichloro-benzenesulfonylamino)-N-(6-piperidin-1-ylmethyl-1,2,3,4-tetrahydro-naphthalen-1-yl)-propionamide]
< 10 | CC(C)(C)NCc1ccc2c(c1)OCC[C@H]2NC(=O)C[C@@H](NS(=O)(=O)c1cc(C(F)(F)F)ccc1Cl)c1ccc(F)cc1 [ej, N-[7-(tert-Butylamino-methyl)-chroman-4-yl]-3-(2-chloro-5-trifluoromethyl-benzenesulfonylamino)-3-(4-fluoro-phenyl)-propionamide]
< 10 | CC(C)(C)NCc1ccc2c(c1)CCC[C@H]2NC(=O)C[C@H](NS(=O)(=O)c1cccc(C(F)(F)F)c1)c1ccc([N+](=O)[O-])cc1 [em, N-[6-(tert-Butylamino-methyl)-1,2,3,4-tetrahydro-naphthalen-1-yl]-3-(4-nitro-phenyl)-3-(3-trifluoromethyl-benzenesulfonylamino)-propionamide]
< 10 | O=C(CC(NS(=O)(=O)c1cccc(C(F)(F)F)c1)c1ccc(Cl)cc1)N[C@@H]1CCCc2cc(CN3CCCCC3)ccc21 (stereo partly shown) [ex, 3-(4-Chloro-phenyl)-N-(6-piperidin-1-ylmethyl-1,2,3,4-tetrahydro-naphthalen-1-yl)-3-(3-trifluoromethyl-benzenesulfonylamino)-propionamide]
